Measurements from ChEMBL document CHEMBL1123763, “Resolution of (+/-)-2-tetradecyloxiranecarboxylic acid. Absolute configuration and chiral synthesis of the hypoglycemic R enantiomer and biological activity of enantiomers” (J Med Chem, 1987).
pIC50: −log10 of the molar value. Calls of active or inactive are those of the source. The rule behind the calls is not given here.

What was measured:
[1] = molecular target: T1, Carnitine O-palmitoyltransferase 1, liver isoform (Rattus norvegicus, UniProt P32198); assay: Inhibition of carnitine palmitoyl transferase (CPT), assessed with isolated rat liver mitochondria
T1 sequence (P32198 whole entry): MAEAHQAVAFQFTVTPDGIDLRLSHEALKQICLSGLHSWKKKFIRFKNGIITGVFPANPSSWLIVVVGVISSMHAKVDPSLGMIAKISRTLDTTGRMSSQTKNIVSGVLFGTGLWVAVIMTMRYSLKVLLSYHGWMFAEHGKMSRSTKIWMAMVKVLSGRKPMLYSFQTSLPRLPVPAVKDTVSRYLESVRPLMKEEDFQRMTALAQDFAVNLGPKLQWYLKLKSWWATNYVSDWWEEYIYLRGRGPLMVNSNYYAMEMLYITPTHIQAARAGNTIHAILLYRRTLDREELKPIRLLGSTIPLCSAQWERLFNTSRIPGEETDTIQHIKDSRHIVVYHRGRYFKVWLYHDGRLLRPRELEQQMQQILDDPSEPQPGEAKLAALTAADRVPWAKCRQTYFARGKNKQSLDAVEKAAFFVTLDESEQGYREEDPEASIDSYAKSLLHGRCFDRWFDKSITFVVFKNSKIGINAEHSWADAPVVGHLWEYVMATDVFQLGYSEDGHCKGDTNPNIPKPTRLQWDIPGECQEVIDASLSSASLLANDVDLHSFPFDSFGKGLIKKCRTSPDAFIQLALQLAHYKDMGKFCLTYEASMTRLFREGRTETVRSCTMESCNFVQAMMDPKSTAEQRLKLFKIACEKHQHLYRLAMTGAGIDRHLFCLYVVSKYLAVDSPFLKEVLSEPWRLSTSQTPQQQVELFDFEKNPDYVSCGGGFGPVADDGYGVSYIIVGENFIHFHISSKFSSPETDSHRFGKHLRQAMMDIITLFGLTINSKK

Rattus norvegicus [2] = assay: Rat glucose tolerance in vivo expressed as minimum effective dose (MED), it is the lowest dose giving a statistically significant (p<0.05) lowering at any time point; assay type: functional; conditions: read-out: MED
Rattus norvegicus [3] = assay: Rat glucose tolerance test was determined in vivo at 75 mg/kg perorally; assay type: functional; conditions: route oral
[4] = molecular target: T1, Carnitine O-palmitoyltransferase 1, liver isoform; assay: Inhibition of carnitine palmitoyl transferase (CPT), assessed with isolated rat liver mitochondria; Inactive
Rattus norvegicus [5] = organism: Rattus norvegicus; assay: In vitro inhibition of [1-14C]palmitate oxidation in rat hemidiaphragms; assay type: functional
Rattus norvegicus [6] = assay: Rat glucose tolerance test was determined in vivo at 100 mg/kg perorally; assay type: functional; conditions: route oral
Rattus norvegicus [7] = assay: Rat glucose tolerance test was determined in vivo at 10 mg/kg perorally; assay type: functional; conditions: route oral
Rattus norvegicus [8] = assay: Rat glucose tolerance in vivo expressed as minimum effective dose (MED), it is the lowest dose giving a statistically significant (p<0.05) lowering at any time point; Inactive; assay type: functional, organism-based
Rattus norvegicus [9] = assay: Rat glucose tolerance test was determined in vivo at 100 mg/kg perorally; Inactive; assay type: functional, organism-based; set-up: dose 100 mg/kg
Rattus norvegicus [10] = organism: Rattus norvegicus; assay: In vitro inhibition of [1-14C]palmitate oxidation in rat hemidiaphragms; Inactive; assay type: functional

## CCCCCCCCCCCCCC[C@]1(C(=O)OC)CO1
[1]
  pIC50: 7.40

## CCCCCCCCCCCCCC[C@]1(C(=O)SCCNC(=O)CCNC(=O)C(O)C(C)(C)COP(=O)(O)OP(=O)(O)OC[C@H]2O[C@@H](n3cnc4c(N)ncnc43)[C@H](O)[C@@H]2OP(=O)(O)O)CO1 (some centres undefined)
[1]
  pIC50: 7.70

## CCCCCCCCCCCCCCC1(C(=O)OC)CO1 (racemic) [METHYL PALMOXIRATE]
[1]
  pIC50: 7.05
Rattus norvegicus [2]
  minimal effective dose: 2 mg/kg
Rattus norvegicus [3]
  Lowering: 45%

## CCCCCCCCCCCCCC[C@@]1(C(=O)SCCNC(=O)CCNC(=O)C(O)C(C)(C)COP(=O)(O)OP(=O)(O)OC[C@H]2O[C@@H](n3cnc4c(N)ncnc43)[C@H](O)[C@@H]2OP(=O)(O)O)CO1 (some centres undefined)
[4]
  IC50: Not Active

## CCCCCCCCCCCCCCC1(C(=O)O)CO1 (racemic) [PALMOXIRATE]
Rattus norvegicus [5]
  pIC50: 5.66
[1]
  pIC50: 7.40
Rattus norvegicus [6]
  Lowering: 53%
Rattus norvegicus [2]
  minimal effective dose: 5 mg/kg

## CCCCCCCCCCCCCCC1(C(=O)SCCNC(=O)CCNC(=O)C(O)C(C)(C)COP(=O)(O)OP(=O)(O)OC[C@H]2O[C@@H](n3cnc4c(N)ncnc43)[C@H](O)[C@@H]2OP(=O)(O)O)CO1 (mixture of isomers)
[1]
  pIC50: 7.52

## CCCCCCCCCCCCCC[C@]1(C(=O)O)CO1
Rattus norvegicus [5]
  pIC50: 5.92
[1]
  pIC50: 7.52
Rattus norvegicus [2]
  minimal effective dose: 5 mg/kg
Rattus norvegicus [7]
  Lowering: 25%

## CCCCCCCCCCCCCC[C@@]1(C(=O)O)CO1
Rattus norvegicus [8]
  MED: inactive
Rattus norvegicus [9]
  Lowering: inactive
Rattus norvegicus [10]
  IC50: Not Active
[4]
  IC50: Not Active
